Measured values published in patent US20020048572A1, “Treatment of hypertriglyceridemia and other conditions using LXR modulators” (priority 2000, published 2002).
“Also recorded” adds a separate entry of the source.

How the values were obtained:
HepG2 cells [1] = assay: Northern blot analysis of HepG2 cells treated with LXRα ligand, with or without cyclohexamide; type: cell-based
Protocol: HepG2 cells were treated with 24,25-epoxycholesterol in the presence or absence of 50 μg/ml cyclohexamide in DMEM F12 media supplemented with 10% lipid-free serum for 18 hours.
Total RNA was then prepared using the TRIzol® method (Chomczynski and Saachi (1987) Anal. Biochem. 162:156). Electrophoresis and Northern blot analysis were performed using the NorthernMax™ system (Ambion). Ribonucleotide probes were used to identify the RNA transcripts.

[2] = tested on: HepG2, 293, and CaCO2 cells; assay: Northern blot analysis of three cell lines treated with oxysterols in presence of cyclohexamide; type: cell-based; conditions: 30 μM, 50 μg/ml cyclohexamide, 18 hours
Protocol: To ascertain whether or not the 24,25-epoxycholesterol-mediated activation of SREBP-1 expression is cell-specific, three cell lines were tested. HepG2, 293, and CaCO2 cells were treated with either DMSO, 30 μM of 24,25-epoxycholesterol, 30 μM of 22(R)-hydroxycholesterol, or 30 μM 22(S)-hydroxycholesterol in the presence of 50 μg/ml cyclohexamide in DMEM F12 media supplemented with 10% lipid-free serum for 18 hours.
Total RNA was then prepared using the Trizol method. Electrophoresis and Northern blot analysis were performed using the NorthernMax™ system (Ambion). Ribonucleotide probes were used to identify RNA transcripts.

[3] = target: T1, LXRα ligand-binding domain (Homo sapiens, UniProt Q13133); assay: biochemical
T1 sequence (Q13133 209-447 limits assumed): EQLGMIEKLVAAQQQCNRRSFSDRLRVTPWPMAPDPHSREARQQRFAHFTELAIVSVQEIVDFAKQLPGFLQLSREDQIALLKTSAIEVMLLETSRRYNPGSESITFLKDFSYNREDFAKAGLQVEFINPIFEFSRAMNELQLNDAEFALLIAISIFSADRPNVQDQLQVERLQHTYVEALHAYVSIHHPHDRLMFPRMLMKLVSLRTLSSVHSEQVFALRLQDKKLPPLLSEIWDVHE

LXRα = target: T2, LXRα (Homo sapiens, UniProt Q13133); conditions: SPA
T2 sequence (Q13133 1-447): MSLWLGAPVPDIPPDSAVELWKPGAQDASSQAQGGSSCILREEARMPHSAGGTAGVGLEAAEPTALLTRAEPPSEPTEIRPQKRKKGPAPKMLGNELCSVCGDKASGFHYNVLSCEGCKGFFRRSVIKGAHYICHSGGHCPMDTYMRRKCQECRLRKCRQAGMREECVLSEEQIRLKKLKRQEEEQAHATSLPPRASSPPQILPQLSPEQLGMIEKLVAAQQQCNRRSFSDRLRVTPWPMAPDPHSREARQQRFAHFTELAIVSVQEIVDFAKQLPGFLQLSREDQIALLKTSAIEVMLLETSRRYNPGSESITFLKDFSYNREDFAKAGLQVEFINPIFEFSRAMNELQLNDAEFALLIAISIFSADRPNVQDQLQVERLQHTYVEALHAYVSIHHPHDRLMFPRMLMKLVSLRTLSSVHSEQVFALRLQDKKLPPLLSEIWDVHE

HepG2 cells [4] = assay: Northern blot analysis of T0314407-dosed HepG2 cells with and without cycloheximide; type: cell-based; conditions: HepG2, with 50 μg/mL cycloheximide, 18 h
Protocol: FIG. 9. Northern blot analysis. Total RNA was isolated from the tissues indicated from mice (A,B,C) and hamsters (D). The numerical data shown with each figure represents the fold increase (+) or decrease (−) of expression relative to corresponding vehicle-treated controls. (E) HepG2 cells were incubated in culture media with or without cycloheximide (cyclohex). For the Northern blot analysis from cycloheximide-treated HepG2 cells, tissue cultures were incubated in cell culture media with 10% lipid-deficient serum with or without 50 μg/mL cycloheximide. T0314407 was added after 30 min of cycloheximide treatment, cells were harvested 18 h later, and total RNA was extracted as described.

[5] = HepG2, presence and absence of 50 μg/ml cyclohexamide, 18 hours

SMILES | expression of SREBP-2 (HepG2 cells [1]; HepG2, 18 hours) | expression of negative control GAPDH (HepG2 cells [1]; HepG2, 18 hours) | expression of SREBP-1 mRNA (HepG2 cells [1]; [5]) | expression of fatty acid synthase (HepG2 cells [1]; [5]) | expression of GAPDH [2] | expression of SREBP-2 [2] | SREBP-1 expression ([2]; all three cell lines) | EC50 [3] | competition with binding of radiolabeled T0314407 to LXRα (LXRα) | agonist-mediated increase in levels of FAS mRNA (HepG2 cells [4]) | induction of SREBP-1 gene expression (HepG2 cells [4])
C[C@H](CC[C@@H]1OC1(C)C)[C@H]1CC[C@H]2[C@@H]3CC=C4C[C@@H](O)CC[C@]4(C)[C@H]3CC[C@]12C [24,25-epoxycholesterol, 24(S),25-epoxycholesterol] | not affected | not affected | stimulated; also recorded: activates | stimulated | not significantly enhanced | not significantly enhanced | activates | 300 nM | competed |  | 
CN(c1ccc(C(O)(C(F)(F)F)C(F)(F)F)cc1)S(=O)(=O)c1ccccc1 [T0314407, N-methyl-N-[4-(2,2,2-trifluoro-1-hydroxy-1-trifluoromethyl-ethyl)-phenyl]-benzenesulfonamide] |  |  |  |  |  |  |  |  |  | arrested | persisted
